The values below come from patent US20240358767A1, “STEM CELL DIFFERENTIATION AND CHEMICAL COMPOUNDS” (VERTEX PHARMACEUTICALS INCORPORATED, priority 2021, published 2024).

Like-named read-outs stand apart in the source and are kept apart here.

In series [1] the test system is Stem cells. Put plainly: 384-well screen of small molecule compounds for Stage 1 differentiation to Sox17-positive definitive endoderm cells (immunostaining, DAPI). As to conditions: for signal in Oct 4 channel / signal in Sox17 channel: 10 ng/mL AA plus test compound, about 8 concentrations, dose-responsive manner; for Relative to 100 ng/mL AA (percentage of Sox17-positive cells normalized by the percentage with 100 ng/mL AA): Stage 1 condition with 10 ng/mL AA and the test compound, 384-well plates; for nuclear blebbing in the resulting cell population: visual inspection.

The next series has as its target EZH2 (Homo sapiens, UniProt Q15910). As to conditions: cited from earlier work.
In series [2] the test system is Stem cells.

Sequence of EZH2 (Q15910 whole entry, species assumed): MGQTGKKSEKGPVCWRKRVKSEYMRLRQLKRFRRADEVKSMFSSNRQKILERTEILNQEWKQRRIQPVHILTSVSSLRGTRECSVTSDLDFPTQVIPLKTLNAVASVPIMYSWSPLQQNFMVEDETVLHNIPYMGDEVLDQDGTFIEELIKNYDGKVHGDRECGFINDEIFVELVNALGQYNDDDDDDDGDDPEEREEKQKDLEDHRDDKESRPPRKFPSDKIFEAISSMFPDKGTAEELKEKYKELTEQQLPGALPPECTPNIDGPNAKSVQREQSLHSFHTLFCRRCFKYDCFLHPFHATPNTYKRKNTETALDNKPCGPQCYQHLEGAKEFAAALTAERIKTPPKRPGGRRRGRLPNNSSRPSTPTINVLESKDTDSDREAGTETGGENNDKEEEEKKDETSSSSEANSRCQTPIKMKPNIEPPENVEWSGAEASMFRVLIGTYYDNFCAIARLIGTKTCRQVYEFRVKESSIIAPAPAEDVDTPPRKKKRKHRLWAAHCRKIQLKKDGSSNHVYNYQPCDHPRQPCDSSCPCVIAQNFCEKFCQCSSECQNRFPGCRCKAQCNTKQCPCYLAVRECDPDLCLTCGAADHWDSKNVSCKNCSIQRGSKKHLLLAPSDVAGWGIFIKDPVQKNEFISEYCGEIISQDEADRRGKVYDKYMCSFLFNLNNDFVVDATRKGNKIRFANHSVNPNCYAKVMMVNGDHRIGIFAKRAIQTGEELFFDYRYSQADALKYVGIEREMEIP
Sequence of EZH2 (O75530 whole entry partner, species assumed): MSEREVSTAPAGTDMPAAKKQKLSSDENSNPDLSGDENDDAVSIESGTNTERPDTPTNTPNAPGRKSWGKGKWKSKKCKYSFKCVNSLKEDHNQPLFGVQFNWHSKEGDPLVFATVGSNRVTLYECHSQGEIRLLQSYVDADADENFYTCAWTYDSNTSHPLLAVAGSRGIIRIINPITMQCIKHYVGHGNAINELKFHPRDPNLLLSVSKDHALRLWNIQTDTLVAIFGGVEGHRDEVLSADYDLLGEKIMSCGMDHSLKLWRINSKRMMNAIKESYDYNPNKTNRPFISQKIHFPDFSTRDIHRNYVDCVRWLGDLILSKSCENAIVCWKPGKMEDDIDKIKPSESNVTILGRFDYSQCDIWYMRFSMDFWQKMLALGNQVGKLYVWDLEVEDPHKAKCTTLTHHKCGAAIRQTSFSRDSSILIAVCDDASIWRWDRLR
Sequence of EZH2 (Q15022 whole entry partner, species assumed): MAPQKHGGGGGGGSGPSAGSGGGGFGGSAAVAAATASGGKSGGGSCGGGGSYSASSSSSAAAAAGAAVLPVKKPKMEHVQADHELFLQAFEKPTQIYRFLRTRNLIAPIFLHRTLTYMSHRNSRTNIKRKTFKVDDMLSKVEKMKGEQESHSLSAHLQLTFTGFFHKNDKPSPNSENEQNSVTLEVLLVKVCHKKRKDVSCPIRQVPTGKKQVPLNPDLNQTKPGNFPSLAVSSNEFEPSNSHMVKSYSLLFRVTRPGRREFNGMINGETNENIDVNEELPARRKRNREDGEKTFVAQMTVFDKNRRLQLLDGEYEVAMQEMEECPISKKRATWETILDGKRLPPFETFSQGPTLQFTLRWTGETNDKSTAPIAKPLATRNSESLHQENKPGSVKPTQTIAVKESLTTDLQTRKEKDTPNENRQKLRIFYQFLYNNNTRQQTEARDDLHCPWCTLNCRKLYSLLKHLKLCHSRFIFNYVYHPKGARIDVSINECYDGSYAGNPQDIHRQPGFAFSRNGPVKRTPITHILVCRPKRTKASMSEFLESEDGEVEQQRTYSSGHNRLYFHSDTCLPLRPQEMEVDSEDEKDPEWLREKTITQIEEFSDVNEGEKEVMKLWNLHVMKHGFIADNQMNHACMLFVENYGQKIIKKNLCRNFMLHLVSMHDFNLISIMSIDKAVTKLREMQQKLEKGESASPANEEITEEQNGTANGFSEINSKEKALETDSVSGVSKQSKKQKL

In the case of `COc1ccc(-c2ccc3c(N4CCOC[C@@H]4C)nc(N4CCOC[C@@H]4C)nc3n2)cc1CO` [AZD8055], in the series with Stem cells [1], the “signal in Oct 4 channel” value was “decrease”, the “signal in Sox17 channel” value was “increase”, the “Relative to 100 ng/mL AA (percentage of Sox17-positive cells normalized by the percentage with 100 ng/mL AA)” value came out at 117% and the “nuclear blebbing in the resulting cell population” value (from here on “nuclear blebbing”) was “not to induce”.

Regarding `Cc1c(CN2CCN(C(=O)[C@H](C)O)CC2)sc2c(N3CCOCC3)nc(-c3cnc(N)nc3)nc12` [Apitolisib], the “Relative to 100 ng/mL AA (percentage of Sox17-positive cells normalized by the percentage with 100 ng/mL AA)” value in the series on Stem cells [1] was determined as 168%.

As to `Nc1nc(-c2nn(Cc3ccccc3F)c3ncccc23)ncc1C1CC1` [BAY 41-2272], in the series on Stem cells [1], the “signal in Oct 4 channel” value was “decrease”, the “signal in Sox17 channel” value is recorded as “increase”, the “Relative to 100 ng/mL AA (percentage of Sox17-positive cells normalized by the percentage with 100 ng/mL AA)” value amounted to 145% and the “nuclear blebbing” value is on record as “not to induce”.

Turning to `CCN1CCN(Cc2ccc(C(=O)Nc3ccc(C)c(Oc4ccc5c(c4)CC(=O)N5)c3)cc2C(F)(F)F)CC1` [DDR1-IN-1], in the series on Stem cells [1], the “signal in Oct 4 channel” value is reported as “decrease”, the “signal in Sox17 channel” value is given as “increase”, the “Relative to 100 ng/mL AA (percentage of Sox17-positive cells normalized by the percentage with 100 ng/mL AA)” value worked out at 120% and the “nuclear blebbing” value is listed as “not to induce”.

With `O=C(c1ccc(-c2nc3ccc(F)cc3o2)cc1)N1CCN(C(=O)C2(O)CC2)CC1` [FT113], the “Relative to 100 ng/mL AA (percentage of Sox17-positive cells normalized by the percentage with 100 ng/mL AA)” value in the series on Stem cells [1] came out at 64%.

For the compound `Cc1c(CN2CCN(S(C)(=O)=O)CC2)sc2c(N3CCOCC3)nc(-c3cnc(N)nc3)nc12` [GNE-477], in the series with Stem cells [1], the “signal in Oct 4 channel” value is given as “decrease”, the “signal in Sox17 channel” value was “increase”, the “Relative to 100 ng/mL AA (percentage of Sox17-positive cells normalized by the percentage with 100 ng/mL AA)” value came out at 160% and the “nuclear blebbing” value is listed as “not to induce”.

Take `CC[C@H](C)n1cc(C)c2c(C(=O)NCc3c(C)cc(C)[nH]c3=O)cc(-c3ccc(N4CCNCC4)nc3)cc21` [GSK126]: the “selectivity over EZH1” value on EZH2 (EZH2 vs EZH1) was 150 fold.

Regarding `CC(C)n1c([C@H](C)Nc2ncnc(N)c2C#N)cc2cccc(-c3ccc(=O)n(C)c3)c2c1=O` [IPI-3063], in the series on Stem cells [1], the “signal in Oct 4 channel” value is listed as “decrease”, the “signal in Sox17 channel” value is “increase”, the “Relative to 100 ng/mL AA (percentage of Sox17-positive cells normalized by the percentage with 100 ng/mL AA)” value was 130% and the “nuclear blebbing” value was “not to induce”.

As for `CC(C)N1CCN(Cc2cnc(-c3cc(-c4cccc5[nH]ccc45)cc4[nH]ncc34)o2)CC1` [Nemiralisib], in the series with Stem cells [1], the “signal in Oct 4 channel” value is reported as “decrease”, the “signal in Sox17 channel” value was “increase” and the “nuclear blebbing” value is “not to induce”.

Regarding `COc1ncc(-c2ccc3nccc(-c4ccnnc4)c3c2)cc1NS(=O)(=O)c1ccc(F)cc1F` [Omipalisib], in the series on Stem cells [1], the “signal in Oct 4 channel” value is on record as “decrease”, the “signal in Sox17 channel” value is given as “increase”, the “Relative to 100 ng/mL AA (percentage of Sox17-positive cells normalized by the percentage with 100 ng/mL AA)” value turned out to be 75% and the “nuclear blebbing” value is “not to induce”.

As for `COc1ccc(-c2sc(NC(=O)C(C)(C)C)nc2C)cc1S(=O)(=O)Nc1ccc(O)cc1` [PI4KIIIbeta-IN-10], in the series with Stem cells [1], the “signal in Oct 4 channel” value is given as “decrease”, the “signal in Sox17 channel” value was “increase” and the “nuclear blebbing” value is listed as “not to induce”.

As to `CCCc1cc(C)[nH]c(=O)c1CNC(=O)c1cc(-c2ccc(N3CCN(C(C)C)CC3)nc2)cc2c1cnn2C(C)C` [UNC1999], the “selectivity compared with GSK126” value at EZH2 is reported as “less selective”.

In the case of `Cc1nc2c(-c3cnc(N)nc3)nc(N3CCOCC3)nc2n1C(C)C` [VS-5584], in the series with Stem cells [2], the “nuclear blebbing” value is reported as “not to induce”.

For the compound `Nc1ccc(C(=O)Nc2cccc(-c3nc(N4CCOCC4)c4oc5ncccc5c4n3)c2)cn1` [YM201636], in the series with Stem cells [1], the “signal in Oct 4 channel” value was “decrease” and the “signal in Sox17 channel” value was “increase”.
